Measured values from PMC11364104, “Discovery of SARS-CoV-2 papain-like protease (PL^pro) inhibitors with efficacy in a murine infection model” (Science Advances, 2024).
pIC50: −log10 of the molar value. Like-named read-outs stand apart in the source and are kept apart here.

What was measured:
[1] = molecular target: T1, Choline Transporter (Homo sapiens, UniProt Q9GZV3); experiment: CEREP transporters-binding
T1 construct: purchased Eurofins Cerep

[2] = tested on: Monoamine Oxidase; experiment: CEREP enzyme inhibition; assay type: biochemical; details: 30 µM
[3] = molecular target: T2, Src Kinase (Homo sapiens, UniProt P12931); experiment: CEREP kinase inhibition; assay type: biochemical
T2 construct: purchased Eurofins Cerep
T2 sequence (P12931 whole entry): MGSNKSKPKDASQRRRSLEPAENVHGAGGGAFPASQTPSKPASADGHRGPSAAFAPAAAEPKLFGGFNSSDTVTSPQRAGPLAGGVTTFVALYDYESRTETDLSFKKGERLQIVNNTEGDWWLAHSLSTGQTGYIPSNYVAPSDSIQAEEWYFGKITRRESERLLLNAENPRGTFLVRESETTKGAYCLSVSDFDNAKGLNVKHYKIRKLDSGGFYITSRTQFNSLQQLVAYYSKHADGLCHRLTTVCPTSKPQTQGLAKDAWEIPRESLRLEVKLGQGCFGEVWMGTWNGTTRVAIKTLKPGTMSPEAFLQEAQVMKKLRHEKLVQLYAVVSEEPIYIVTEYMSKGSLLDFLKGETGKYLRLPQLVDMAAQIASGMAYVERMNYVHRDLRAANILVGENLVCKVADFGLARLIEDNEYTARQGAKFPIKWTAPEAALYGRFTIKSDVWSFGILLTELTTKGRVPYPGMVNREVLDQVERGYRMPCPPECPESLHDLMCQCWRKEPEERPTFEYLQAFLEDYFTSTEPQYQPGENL

[4] = molecular target: T3, Acetylcholinesterase (Homo sapiens, UniProt P22303); experiment: CEREP enzyme inhibition; assay type: biochemical
T3 construct: purchased Eurofins Cerep
T3 sequence (P22303 32-614): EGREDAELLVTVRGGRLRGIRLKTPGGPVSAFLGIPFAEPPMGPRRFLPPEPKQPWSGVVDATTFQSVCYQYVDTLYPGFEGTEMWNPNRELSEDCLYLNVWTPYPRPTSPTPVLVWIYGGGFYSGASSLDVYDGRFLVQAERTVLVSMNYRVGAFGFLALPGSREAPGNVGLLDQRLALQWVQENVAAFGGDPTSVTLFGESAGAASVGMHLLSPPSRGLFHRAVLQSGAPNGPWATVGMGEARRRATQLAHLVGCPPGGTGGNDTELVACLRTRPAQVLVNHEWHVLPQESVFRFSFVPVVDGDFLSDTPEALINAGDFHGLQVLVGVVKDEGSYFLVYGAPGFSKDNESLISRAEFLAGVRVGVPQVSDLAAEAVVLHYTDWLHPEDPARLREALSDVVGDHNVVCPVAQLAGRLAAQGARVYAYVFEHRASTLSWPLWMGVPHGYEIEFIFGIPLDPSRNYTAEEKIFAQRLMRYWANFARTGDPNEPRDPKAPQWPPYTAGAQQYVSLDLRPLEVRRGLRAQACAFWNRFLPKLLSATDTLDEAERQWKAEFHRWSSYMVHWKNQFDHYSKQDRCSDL

[5] = molecular target: CYP2C8 (Homo sapiens, UniProt P10632); experiment: biochemical
Sequence of CYP2C8 (P10632 whole entry): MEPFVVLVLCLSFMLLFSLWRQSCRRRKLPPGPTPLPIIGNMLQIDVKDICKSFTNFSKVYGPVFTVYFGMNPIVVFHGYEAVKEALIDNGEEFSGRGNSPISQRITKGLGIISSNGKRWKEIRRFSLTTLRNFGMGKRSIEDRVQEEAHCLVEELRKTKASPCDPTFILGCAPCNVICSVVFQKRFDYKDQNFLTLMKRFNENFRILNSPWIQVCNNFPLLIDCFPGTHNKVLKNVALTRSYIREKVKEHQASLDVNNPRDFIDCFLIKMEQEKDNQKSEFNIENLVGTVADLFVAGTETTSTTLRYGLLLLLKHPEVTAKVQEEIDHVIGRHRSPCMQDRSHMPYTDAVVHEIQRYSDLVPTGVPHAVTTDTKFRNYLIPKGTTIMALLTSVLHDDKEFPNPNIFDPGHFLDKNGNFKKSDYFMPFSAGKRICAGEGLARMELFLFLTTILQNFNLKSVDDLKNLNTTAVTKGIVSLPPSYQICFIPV

[6] = tested on: Sodium (Site 2); experiment: CEREP ion channel-binding; details: 30 µM
[7] = in vivo; set-up: species or system mouse; details: for Vd: C57BL6, mouse, iv, 1 mg/kg, read-out: Vdss
[8] = molecular target: T4, Human Elastase (Homo sapiens, UniProt P08246); experiment: biochemical
T4 construct: Reaction Biology Corporation (ran the assay as a service)
T4 sequence (P08246 30-267): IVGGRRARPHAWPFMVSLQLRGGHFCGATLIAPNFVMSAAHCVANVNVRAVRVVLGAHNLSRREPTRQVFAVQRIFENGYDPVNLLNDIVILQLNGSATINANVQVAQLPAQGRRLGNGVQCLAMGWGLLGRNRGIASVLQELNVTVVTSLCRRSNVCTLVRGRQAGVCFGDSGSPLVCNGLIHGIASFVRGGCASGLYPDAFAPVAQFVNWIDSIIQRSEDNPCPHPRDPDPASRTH

[9] = molecular target: T5, VEGFR2 Kinase (Homo sapiens, UniProt P35968); experiment: CEREP kinase inhibition; assay type: biochemical
T5 construct: purchased Eurofins Cerep
T5 sequence (P35968 20-1356): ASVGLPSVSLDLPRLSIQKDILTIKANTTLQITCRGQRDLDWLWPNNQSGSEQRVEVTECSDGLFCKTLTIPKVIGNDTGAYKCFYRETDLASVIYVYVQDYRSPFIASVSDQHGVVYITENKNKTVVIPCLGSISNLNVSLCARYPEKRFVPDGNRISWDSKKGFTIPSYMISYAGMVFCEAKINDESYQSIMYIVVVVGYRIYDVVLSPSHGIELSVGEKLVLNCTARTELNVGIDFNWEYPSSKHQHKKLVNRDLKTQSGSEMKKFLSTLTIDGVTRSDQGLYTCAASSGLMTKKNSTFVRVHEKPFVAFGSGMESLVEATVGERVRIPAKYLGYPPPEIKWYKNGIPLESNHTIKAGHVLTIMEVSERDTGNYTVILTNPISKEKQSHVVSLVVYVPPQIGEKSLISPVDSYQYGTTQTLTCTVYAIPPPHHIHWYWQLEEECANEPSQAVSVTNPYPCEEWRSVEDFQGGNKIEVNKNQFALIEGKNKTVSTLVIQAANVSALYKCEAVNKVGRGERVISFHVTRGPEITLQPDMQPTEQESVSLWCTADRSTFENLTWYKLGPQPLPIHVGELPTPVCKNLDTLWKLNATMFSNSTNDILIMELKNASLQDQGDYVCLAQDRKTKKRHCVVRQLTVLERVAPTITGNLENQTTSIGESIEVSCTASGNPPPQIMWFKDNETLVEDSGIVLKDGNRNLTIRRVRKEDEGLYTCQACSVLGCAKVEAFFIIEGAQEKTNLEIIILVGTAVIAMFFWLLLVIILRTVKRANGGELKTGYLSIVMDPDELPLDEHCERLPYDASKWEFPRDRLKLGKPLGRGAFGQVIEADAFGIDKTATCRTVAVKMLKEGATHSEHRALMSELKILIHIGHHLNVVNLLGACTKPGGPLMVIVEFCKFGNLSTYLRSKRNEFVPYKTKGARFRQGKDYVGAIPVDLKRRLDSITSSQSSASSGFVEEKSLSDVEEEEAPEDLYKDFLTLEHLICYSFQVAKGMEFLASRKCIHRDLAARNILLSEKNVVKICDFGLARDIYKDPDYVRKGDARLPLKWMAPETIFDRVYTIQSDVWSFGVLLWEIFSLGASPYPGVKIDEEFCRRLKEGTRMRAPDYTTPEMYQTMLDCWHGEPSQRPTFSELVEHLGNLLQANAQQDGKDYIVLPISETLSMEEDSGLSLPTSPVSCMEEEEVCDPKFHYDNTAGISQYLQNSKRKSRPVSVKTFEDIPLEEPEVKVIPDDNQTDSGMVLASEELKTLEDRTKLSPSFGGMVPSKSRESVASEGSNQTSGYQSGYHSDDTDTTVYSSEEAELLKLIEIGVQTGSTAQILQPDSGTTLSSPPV

[10] = molecular target: T6, Serotonin Transporter (Homo sapiens, UniProt P31645); experiment: CEREP transporters-binding
T6 construct: purchased Eurofins Cerep
T6 sequence (P31645 whole entry): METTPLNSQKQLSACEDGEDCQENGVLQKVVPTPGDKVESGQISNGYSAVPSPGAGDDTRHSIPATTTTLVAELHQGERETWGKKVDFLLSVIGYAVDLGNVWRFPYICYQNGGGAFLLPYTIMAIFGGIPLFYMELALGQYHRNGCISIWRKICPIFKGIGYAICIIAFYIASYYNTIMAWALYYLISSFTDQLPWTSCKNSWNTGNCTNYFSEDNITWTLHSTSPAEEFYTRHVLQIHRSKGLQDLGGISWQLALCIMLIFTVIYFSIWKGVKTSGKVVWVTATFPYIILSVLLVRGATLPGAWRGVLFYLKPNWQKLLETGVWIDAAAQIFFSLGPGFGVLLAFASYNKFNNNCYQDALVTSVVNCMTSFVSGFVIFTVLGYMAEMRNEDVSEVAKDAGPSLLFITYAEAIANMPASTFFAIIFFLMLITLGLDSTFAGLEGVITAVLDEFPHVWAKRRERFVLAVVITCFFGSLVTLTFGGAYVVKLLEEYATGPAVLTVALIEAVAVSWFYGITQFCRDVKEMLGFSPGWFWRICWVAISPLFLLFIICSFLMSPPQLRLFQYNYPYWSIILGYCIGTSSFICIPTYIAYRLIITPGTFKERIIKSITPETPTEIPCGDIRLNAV

[11] = tested on: Nicotinic Ach Receptor (Neuronal); experiment: CEREP ion channel-binding; details: 30 µM
[12] = in vivo, Male C57BL6 mouse, 1.0 mg/kg iv, solution, mean n=2
[13] = in vivo, Male C57BL6 mouse, 10 mg/kg po, solution, mean n=2
[14] = mouse Balb c female, PO 15 mg/kg, suspension
[15] = mouse Balb c female, PO 50 mg/kg, suspension
[16] = mouse Balb c female, PO 150 mg/kg, suspension
[17] = mouse C57BL6 male, IV 1 mg/kg, solution
[18] = mouse C57BL6 male, PO 10 mg/kg, solution
[19] = mouse C57BL6 male, PO 30 mg/kg, solution

T1 sequence (Q9GZV3 whole entry): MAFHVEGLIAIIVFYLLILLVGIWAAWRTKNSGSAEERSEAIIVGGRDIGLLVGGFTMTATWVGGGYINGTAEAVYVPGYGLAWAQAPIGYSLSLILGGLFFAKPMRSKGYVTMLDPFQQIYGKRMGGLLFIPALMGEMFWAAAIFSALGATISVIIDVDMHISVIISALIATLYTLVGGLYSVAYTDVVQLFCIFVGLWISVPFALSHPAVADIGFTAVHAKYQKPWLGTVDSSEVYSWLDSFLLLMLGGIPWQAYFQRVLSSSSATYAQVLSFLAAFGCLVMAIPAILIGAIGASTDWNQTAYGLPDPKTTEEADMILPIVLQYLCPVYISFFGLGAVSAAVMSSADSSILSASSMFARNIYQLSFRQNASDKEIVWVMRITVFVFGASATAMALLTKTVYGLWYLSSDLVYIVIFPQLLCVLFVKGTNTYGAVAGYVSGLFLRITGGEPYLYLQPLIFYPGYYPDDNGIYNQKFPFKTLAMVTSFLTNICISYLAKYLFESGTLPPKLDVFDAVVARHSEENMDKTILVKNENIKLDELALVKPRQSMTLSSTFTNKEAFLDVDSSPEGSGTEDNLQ

**Q.** Which inhibition at 30 µM [1] does the source give for `Cc1ccc(N2CCN(C)CC2)cc1C(=O)NC1(c2cc(-c3cnn(C)c3)nc3ccccc23)CC1` [Compound 4] here?
**A.** Its inhibition at 30 µM is 25%.

**Q.** And the “% inhibition” value [2]?
**A.** The value was 16%.

**Q.** And the inhibition at 30 µM [3]?
**A.** The inhibition at 30 µM was -5%.

**Q.** What about the inhibition at 30 µM [4] of the same compound?
**A.** The inhibition at 30 µM was 17%.

**Q.** What about the pIC50 [5] of the same compound?
**A.** Its pIC50 is 4.12.

**Q.** What about the “% inhibition” value [6] of the same compound?
**A.** The value was -15%.

**Q.** And the “Oral F” value ([7]; Male C57BL6 mouse, 10 mg/kg po, solution, mean n=2)?
**A.** The value was 53.10%.

**Q.** And the AUC(0-inf) [7, 12]?
**A.** Its AUC(0-inf) is 708 ng·h/mL.

**Q.** What about the half-life [7, 12] of the same compound?
**A.** The half-life was 3.29 h.

**Q.** What about the clearance ([7]; in vivo, Male C57BL6 mouse, 1.0 mg/kg iv, solution, mean n=2, read-out: CLp) of the same compound?
**A.** The clearance was 23.7 mL/min/kg.

**Q.** What about the AUC(0-inf) [7, 13] of the same compound?
**A.** Its AUC(0-inf) is 3760 ng·h/mL.

**Q.** What about the Cmax [7, 13] of the same compound?
**A.** Its Cmax is 862 ng/mL.

**Q.** What about the half-life [7, 13] of the same compound?
**A.** The half-life was 2.19 h.

**Q.** And the Tmax ([7]; in vivo, Male C57BL6 mouse, 10 mg/kg po, solution, mean n=2, read-out: Tmax)?
**A.** Its Tmax is 2 h.

**Q.** What about the Cmax ([7]; in vivo, mouse Balb c female, PO 15 mg/kg, suspension) of the same compound?
**A.** The Cmax was 1140 ng/mL.

**Q.** And the Cmax ([7]; in vivo, mouse Balb c female, PO 50 mg/kg, suspension)?
**A.** Its Cmax is 5410 ng/mL.

**Q.** And the Cmax ([7]; in vivo, mouse Balb c female, PO 150 mg/kg, suspension)?
**A.** Its Cmax is 12800 ng/mL.

**Q.** What about the Cmax ([7]; in vivo, mouse C57BL6 male, PO 30 mg/kg, solution) of the same compound?
**A.** The Cmax was 1880 ng/mL.

**Q.** What about the bioavailability ([7]; male, C57BL6, in vivo, po, 10 mg/kg, mouse (m), read-out: Oral F (%)) of the same compound?
**A.** The bioavailability was 53.2%.

**Q.** And the Vd ([7]; male, in vivo, Male C57BL6 mouse, 1.0 mg/kg iv, solution, mean n=2)?
**A.** Its Vd is 2.13 L/kg.

**Q.** What about the Vd ([7]; male, in vivo, mouse (m), intravenous) of the same compound?
**A.** The Vd was 2.12 L/kg.

**Q.** What about the Vd ([7]; male, in vivo, mouse C57BL6 male, IV 1 mg/kg, solution) of the same compound?
**A.** The Vd was 2.13 L/kg.

**Q.** And the “% F Method 3 (Dose * AUC Extrap)” value [7, 14]?
**A.** The value was 74.8%.

**Q.** What about the “AUC(0,inf)” value [7, 14] of the same compound?
**A.** Its value is 7940 ng·h/mL.

**Q.** What about the “AUC(0-Tlast)” value [7, 14] of the same compound?
**A.** The value was 7940 ng·h/mL.

**Q.** What about the T1/2 [7, 14] of the same compound?
**A.** The T1/2 was 1.95 h.

**Q.** And the Tmax [7, 14]?
**A.** Its Tmax is 1.25 h.

**Q.** And the “% F Method 3 (Dose * AUC Extrap)” value [7, 15]?
**A.** The value was 84.0%.

**Q.** What about the “AUC(0,inf)” value [7, 15] of the same compound?
**A.** The value was 29800 ng·h/mL.

**Q.** And the “AUC(0-Tlast)” value [7, 15]?
**A.** The value was 29700 ng·h/mL.

**Q.** What about the T1/2 [7, 15] of the same compound?
**A.** The T1/2 was 2.01 h.

**Q.** What about the Tmax [7, 15] of the same compound?
**A.** Its Tmax is 0.375 h.

**Q.** What about the “% F Method 3 (Dose * AUC Extrap)” value [7, 16] of the same compound?
**A.** The value was 84.0%.

**Q.** What about the “AUC(0,inf)” value [7, 16] of the same compound?
**A.** The value was 89200 ng·h/mL.

**Q.** What about the “AUC(0-Tlast)” value [7, 16] of the same compound?
**A.** The value was 89100 ng·h/mL.

**Q.** And the T1/2 [7, 16]?
**A.** The T1/2 was 2.47 h.

**Q.** And the Tmax [7, 16]?
**A.** Its Tmax is 0.25 h.

**Q.** And the “% of dose in feces” value [7, 17]?
**A.** Its value is 26.0%.

**Q.** And the “AUC(0,inf)” value [7, 17]?
**A.** Its value is 708 ng·h/mL.

**Q.** And the “AUC(0-Tlast)” value [7, 17]?
**A.** The value was 706 ng·h/mL.

**Q.** And the T1/2 [7, 17]?
**A.** The T1/2 was 3.29 h.

**Q.** What about the “% F Method 3 (Dose * AUC Extrap)” value [7, 18] of the same compound?
**A.** Its value is 53.1%.

**Q.** What about the “% of dose in feces” value [7, 18] of the same compound?
**A.** Its value is 12.6%.

**Q.** And the “AUC(0,inf)” value [7, 18]?
**A.** Its value is 3760 ng·h/mL.

**Q.** And the “AUC(0-Tlast)” value [7, 18]?
**A.** Its value is 3760 ng·h/mL.

**Q.** And the T1/2 [7, 18]?
**A.** Its T1/2 is 2.19 h.

**Q.** And the Tmax [7, 18]?
**A.** The Tmax was 2 h.

**Q.** And the “% F Method 3 (Dose * AUC Extrap)” value [7, 19]?
**A.** Its value is 67.4%.

**Q.** And the “% of dose in feces” value [7, 19]?
**A.** Its value is 10.8%.

**Q.** And the “AUC(0,inf)” value [7, 19]?
**A.** Its value is 14300 ng·h/mL.

**Q.** And the “AUC(0-Tlast)” value [7, 19]?
**A.** Its value is 14300 ng·h/mL.

**Q.** What about the T1/2 [7, 19] of the same compound?
**A.** Its T1/2 is 2.17 h.

**Q.** What about the Tmax [7, 19] of the same compound?
**A.** Its Tmax is 2 h.

**Q.** And the tolerability ([7]; mouse, oral, highest dose studied (500 mg/kg))?
**A.** The tolerability was “tolerated”.

**Q.** And the pIC50 [8]?
**A.** Its pIC50 is less than 4.00.

**Q.** And the inhibition at 30 µM [9]?
**A.** Its inhibition at 30 µM is 11%.

**Q.** And the inhibition at 30 µM [10]?
**A.** The inhibition at 30 µM was 8%.

**Q.** And the “% inhibition” value [11]?
**A.** Its value is -6%.
